Test results: patent publication US9956301B2, “Complex of garcinol, cyclodextrin and method thereof” (Indus Biotech Private Limited, priority 2010, dated 2018)
Where two headings read alike, the source gives them in different places.

Experiments:
[1] = tested on: Isoproterenol induced cardiac dysfunction; test: Cardioprotective activity of test molecule in Isoproterenol induced cardiac dysfunction; type: in vivo, Male Wistar rats; conditions: rats, Isoproterenol Control = Isoproterenol alone, Mean ± S.E.M.
Experimental: Male Wistar rats were pretreated with 20 mg/kg (p.o.) of test molecule 18 days. From Day 9, Isoproterenol at a dose of 1 mg/kg/day was administered intravenously for 10 days. Isoproterenol administration induced significant changes to the QT and ST interval. Isoproterenol induced oxidative stress was observed by decreased Glutathione (GSH) and increased lipid peroxidation concentrations in the heart.

[2] = tested on: cardiac dysfunction induced by chronic Doxorubicin administration; test: Effect of test molecule in chronic administration of Doxorubicin; type: in vivo, Male Wistar rats; conditions: for Cytoplasmic Eosinophilia / Cytoplasmic vacuoles / Inflammation / Myocardial necrosis / Vascular congestion: heart histopathology, day 30, chronic Doxorubicin, Test Molecule 20 mg/kg; for Cytoplasmic Eosinophilia / Cytoplasmic vacuoles / Inflammation / Myocardial necrosis / Vascular congestion / Glutathione / Lipid Peroxidation: n = 4; for Glutathione / Lipid Peroxidation: heart tissue, Test Molecule 20 mg/kg p.o. 30 days + chronic Doxorubicin; for Glutathione / Lipid Peroxidation / Diastolic Blood Pressure / Mean Arterial Blood Pressure / Systolic Blood Pressure / Difference in Heart Rate / Difference in QT interval / Difference in QTc interval / Difference in ST interval: rats, Doxorubicin Control = Doxorubicin alone, Mean ± SEM; for Diastolic Blood Pressure / Mean Arterial Blood Pressure / Systolic Blood Pressure: Test Molecule 20 mg/kg p.o. 30 days + chronic Doxorubicin 3 mg/kg x 5; for Diastolic Blood Pressure / Mean Arterial Blood Pressure / Systolic Blood Pressure / Difference in Heart Rate / Difference in QT interval / Difference in QTc interval / Difference in ST interval: n = 6; for Difference in Heart Rate / Difference in QT interval / Difference in QTc interval / Difference in ST interval: pretreatment p.o. 30 days (Test Molecule 20 mg/kg) + Doxorubicin 3 mg/kg on days 1, 7, 14, 21, 28
Experimental: Male Wistar rats were pretreated with 20 mg/kg (p.o.) of test molecule for 30 days. On days 1, 7, 14, 21 and 28, Doxorubicin at a dose of 3 mg/kg […] was administered intravenously. On Day 30, animals were sacrificed for histopathological examination of the heart.

[3] = tested on: Doxorubicin induced cardiac dysfunction; test: Activity of Garcinol against Doxorubicin induced cardiac dysfunction; type: in vivo; conditions: rats; for Glutathione / Lipid Peroxidation: heart tissue, Garcinol 100 mg/kg p.o. + Doxorubicin 10 mg/kg i.v., n = 4
Experimental: Male Wistar rats were pretreated with Garcinol at 10, 25, 50, 100 and 200 mg/kg (p.o.) for 18 days. On day 16, Doxorubicin at a dose of 10 mg/kg (i.v.) was administered intravenously. On day 18, animals were sacrificed. […] Elevated oxidative stress on the heart was also seen from increased lipid peroxidation and decreased glutathione (GSH) concentrations.

[4] = tested on: Doxorubicin induced cardiac dysfunction; type: in vivo; conditions: rats, Doxorubicin Control = Doxorubicin alone, Mean ± SEM; for Glutathione / Lipid Peroxidation: heart tissue, Test Molecule 20 mg/kg p.o. + Doxorubicin 10 mg/kg i.v., n = 4; for Diastolic Blood Pressure / Mean Arterial Blood Pressure / Systolic Blood Pressure: Test Molecule 20 mg/kg p.o. 18 days + Doxorubicin 10 mg/kg i.v. day 16; for Diastolic Blood Pressure / Mean Arterial Blood Pressure / Systolic Blood Pressure / Difference in Heart Rate / Difference in QT interval / Difference in ST interval: n = 6; for Difference in Heart Rate / Difference in QT interval / Difference in ST interval: pretreatment p.o. 18 days (Test Molecule 20 mg/kg) + Doxorubicin 10 mg/kg i.v. day 16
Experimental: Male Wistar rats were pretreated with 20 mg/kg (p.o.) of test molecule for 18 days. On day 16, Doxorubicin at a dose of 10 mg/kg (i.v.) was administered intravenously. On day 18, animals were sacrificed. […] It also induces significant prolongation of QT and ST intervals. Significant reduction of mean arterial blood pressure, systolic and diastolic blood pressures were observed. Elevated oxidative stress on the heart was also seen from increased lipid peroxidation and decreased glutathione (GSH) concentrations.

[5] = Water solubility of Garcinol and test molecule; type: physicochemical; conditions: room temperature
Excerpt: Garcinol is insoluble in water at room temperature.

[6] = tested on: Digitalis induced cardiac dysfunction; test: Cardioprotective activity of test molecule in Digitalis induced cardiac dysfunction; type: in vivo, Male Wistar rats
Experimental: Male Wistar rats were pretreated with 20 mg/kg (p.o.) of test molecule for 18 days. On Day 18, Digitalis at a three doses of 500 […] was administered intravenously with interval period of 15 min. After this, 200 […] was administered every 15 min continued upto cardiac arrest. Histopathological examination of the heart was conducted.

[7] = heart tissue, Test Molecule 20 mg/kg + Isoproterenol, n = 4
[8] = test molecule 20 mg/kg p.o. 18 days + Isoproterenol 1 mg/kg/day i.v. 10 days from Day 9, n = 5
[9] = Doxorubicin Control = Doxorubicin alone, Mean ± SEM
[10] = Garcinol 100 mg/kg p.o. 18 days + Doxorubicin 10 mg/kg i.v. day 16, Doxorubicin Control = Doxorubicin alone, Mean ± SEM, n = 6
[11] = heart histopathology, Digitalis induced cardiac dysfunction, n = 4
[12] = rats, test molecule 20 mg/kg p.o. 18 days + Digitalis i.v., Digitalis Control = Digitalis alone, Mean ± S.E.M, n = 4
[13] = rats, test molecule 20 mg/kg p.o. 18 days, then Digitalis i.v. every 15 min up to cardiac arrest, Digitalis Control = Digitalis alone, Mean ± S.E.M., n = 6

## CC(C)NCC(O)c1ccc(O)c(O)c1 (stereo not shown) [Isoproterenol]
[1]; [7]
  Glutathione: 19.02 ± 0.8526 μg/mg of protein
  Lipid Peroxidation: 4.443 ± 0.0392 nmol of MDA/mg of Protein
[1]; [8]
  Difference in Heart Rate: 43.66 ± 6.267 bpm
  Difference in QT interval: 0.01686 ± 0.002 s
  Difference in ST interval: 0.0180 ± 0.0009 s
  Mean Arterial Blood Pressure: 72.45 ± 5.942 mm Hg

## COc1cccc2c1C(=O)c1c(O)c3c(c(O)c1C2=O)C[C@@](O)(C(=O)CO)C[C@@H]3O[C@H]1C[C@H](N)[C@H](O)[C@H](C)O1 [Doxorubicin]
[2]
  Cytoplasmic Eosinophilia: +++ ((+++) 60-90% of cells show changes)
  Cytoplasmic vacuoles: ++ ((++) 30-60% of cells show changes)
  Inflammation: +++ ((+++) 60-90% of cells show changes)
  Myocardial necrosis: +++ ((+++) 60-90% of cells show changes)
  Vascular congestion: ++ ((++) 30-60% of cells show changes)
  Glutathione: 15.05 ± 0.8970 μg/mg of protein
  Lipid Peroxidation: 4.631 ± 0.3671 nmol of MDA/mg of Protein
  Diastolic Blood Pressure: 82.81 ± 1.997 mm Hg
  Mean Arterial Blood Pressure: 86.67 ± 0.9226 mm Hg
  Systolic Blood Pressure: 92.59 ± 1.728 mm Hg
  Difference in Heart Rate: −64.59 ± 12.13 bpm
  Difference in QT interval: 0.015 ± 0.00087 s
  Difference in QTc interval: 0.035 ± 0.0046 s
  Difference in ST interval: 0.016 ± 0.0015 s
[3]; Doxorubicin Control: Doxorubicin 10 mg/kg i.v. day 16 alone
  Number of Animals Deaths: 0/6
[3]; [9]
  Glutathione: 16.10 ± 1.17 μg/mg of protein
  Lipid Peroxidation: 4.56 ± 0.47 nmol of MDA/mg of Protein
[3]; [10]
  Difference in Heart Rate: −77.5 ± 19.63 bpm
  Difference in QT interval: 0.014 ± 0.0035 s
  Difference in ST interval: 0.0085 ± 0.0048 s
[4]
  Glutathione: 17.29 ± 0.4496 μg/mg of protein
  Lipid Peroxidation: 4.160 ± 0.3427 nmol of MDA/mg of Protein
  Diastolic Blood Pressure: 75.96 ± 3.611 mm Hg
  Mean Arterial Blood Pressure: 89.26 ± 1.837 mm Hg
  Systolic Blood Pressure: 89.44 ± 5.108 mm Hg
  Difference in Heart Rate: −33.67 ± 15.96 bpm
  Difference in QT interval: 0.0229 ± 0.00206 s
  Difference in ST interval: 0.015 ± 0.001497 s

## C=C(C)[C@@H](CC=C(C)C)C[C@@]12C[C@@H](CC=C(C)C)C(C)(C)[C@@](CC=C(C)C)(C(=O)C(C(=O)c3ccc(O)c(O)c3)=C1O)C2=O [Garcinol]
[5]
  Water solubility: insoluble
[3]; Garcinol 100 to 200 mg/kg p.o., Doxorubicin 10 mg/kg i.v.
  Animal mortality / toxicity (in words): animal mortality was observed
[3]; [9]
  Glutathione: 22.05 ± 1.031 μg/mg of protein
  Lipid Peroxidation: 1.69 ± 0.04 nmol of MDA/mg of Protein

## Cyclodextrin
[2]
  Cytoplasmic Eosinophilia: ++ ((++) 30-60% of cells show changes)
  Cytoplasmic vacuoles: ++ ((++) 30-60% of cells show changes)
  Inflammation: +++ ((+++) 60-90% of cells show changes)
  Myocardial necrosis: +++ ((+++) 60-90% of cells show changes)
  Vascular congestion: ++ ((++) 30-60% of cells show changes)
  Glutathione: 15.15 ± 0.6584 μg/mg of protein
  Lipid Peroxidation: 4.700 ± 0.6126 nmol of MDA/mg of Protein
  Diastolic Blood Pressure: 80.00 ± 2.298 mm Hg
  Mean Arterial Blood Pressure: 88.04 ± 1.813 mm Hg
  Systolic Blood Pressure: 92.22 ± 2.275 mm Hg
  Difference in Heart Rate: −66.22 ± 8.303 bpm
  Difference in QT interval: 0.015 ± 0.00437 s
  Difference in QTc interval: 0.033 ± 0.0092 s
  Difference in ST interval: 0.016 ± 0.0022 s
[4]
  Glutathione: 16.76 ± 0.4971 μg/mg of protein
  Lipid Peroxidation: 4.056 ± 0.2880 nmol of MDA/mg of Protein
  Diastolic Blood Pressure: 76.83 ± 1.709 mm Hg
  Mean Arterial Blood Pressure: 89.26 ± 2.357 mm Hg
  Systolic Blood Pressure: 89.88 ± 4.507 mm Hg
  Difference in Heart Rate: −34.87 ± 6.935 bpm
  Difference in QT interval: 0.0225 ± 0.00091 s
  Difference in ST interval: 0.014 ± 0.001025 s

## Digitalis
[6]; [11]
  Cytoplasmic Eosinophilia: ++ ((++) 30-60% of cells show changes)
  Cytoplasmic vacuoles: ++ ((++) 30-60% of cells show changes)
  Inflammation: +++ ((+++) 60-90% of cells show changes)
  Myocardial necrosis: +++ ((+++) 60-90% of cells show changes)
  Vascular congestion: ++ ((++) 30-60% of cells show changes)
[6]; [12]
  Glutathione: 21.01 ± 0.5369 μg/mg of protein
  Lipid Peroxidation: 6.909 ± 0.4459 nmol of MDA/mg of Protein
[6]; [13]
  Dose of Digitalis required for inducing Arterial Fibrillation: 2.933 ± 0.2333 mg/kg
  Dose of Digitalis required for inducing Cardiac Arrest: 3.067 ± 0.2801 mg/kg
  Dose of Digitalis required for inducing Ectopic Beats: 2.7 ± 0.2129 mg/kg
